Key:
[1] = Ratio of drug uptake in caudate to cerebellum in anesthetized cynomolgus monkey after 18.5 mins postinjection; assay type: ADME, organism-based, Macaca fascicularis; settings: in vivo
Thalamus [2] = test: Drug uptake in anesthetized cynomolgus monkey brain thalamus after 185 mins postinjection; assay type: ADME, organism-based, Macaca fascicularis; settings: in vivo
Putamen [3] = test: Drug uptake in anesthetized cynomolgus monkey brain putamen after 225 mins postinjection; assay type: ADME, organism-based, Macaca fascicularis; settings: in vivo, 3.75 h
Medulla [4] = test: Drug uptake in anesthetized cynomolgus monkey brain medulla after 27.5 mins postinjection; assay type: ADME, organism-based, Macaca fascicularis; settings: in vivo
[5] = Drug uptake in anesthetized cynomolgus monkey brain cerebellum after 9.5 mins postinjection; assay type: ADME, organism-based, Macaca fascicularis; settings: in vivo
[6] = Ratio of drug uptake in medulla to cerebellum in anesthetized cynomolgus monkey after 165 mins postinjection; assay type: ADME, organism-based, Macaca fascicularis; settings: in vivo, 2.75 h
[7] = Ratio of drug uptake in frontal lobe to cerebellum in anesthetized cynomolgus monkey after 145 mins postinjection; assay type: ADME, organism-based, Macaca fascicularis; settings: in vivo
Thalamus [8] = test: Drug uptake in anesthetized cynomolgus monkey brain thalamus after 115 mins postinjection; assay type: ADME, organism-based, Macaca fascicularis; set-up: unit not given here; settings: in vivo
Caudate [9] = test: Drug uptake in anesthetized cynomolgus monkey brain caudate after 65 mins postinjection; assay type: ADME, organism-based, Macaca fascicularis, Caudate nucleus; settings: in vivo
Midbrain [10] = test: Drug uptake in anesthetized cynomolgus monkey brain midbrain after 205 mins postinjection; assay type: ADME, organism-based, Macaca fascicularis; settings: in vivo
Putamen [11] = test: Drug uptake in anesthetized cynomolgus monkey brain putamen after 95 mins postinjection; assay type: ADME, organism-based, Macaca fascicularis; set-up: unit not given here; settings: in vivo
Putamen [12] = test: Drug uptake in anesthetized cynomolgus monkey brain putamen after 6.5 mins postinjection; assay type: ADME, organism-based, Macaca fascicularis; set-up: unit not given here; settings: in vivo
Medulla [13] = test: Drug uptake in anesthetized cynomolgus monkey brain medulla after 4.5 mins postinjection; assay type: ADME, organism-based, Macaca fascicularis; settings: in vivo, 0.075 h
Pons [14] = test: Drug uptake in anesthetized cynomolgus monkey brain pons after 225 mins postinjection; assay type: ADME, organism-based, Macaca fascicularis; settings: in vivo, 3.75 h
[15] = Drug uptake in anesthetized cynomolgus monkey brain cerebellum after 85 mins postinjection; assay type: ADME, organism-based, Macaca fascicularis; settings: in vivo
[16] = Drug uptake in anesthetized cynomolgus monkey brain occipital lobe after 45 mins postinjection; assay type: ADME, organism-based, Macaca fascicularis; settings: in vivo, 0.75 h
Medulla [17] = test: Drug uptake in anesthetized cynomolgus monkey brain medulla after 2.5 mins postinjection; assay type: ADME, organism-based, Macaca fascicularis; settings: in vivo
Caudate [18] = test: Drug uptake in anesthetized cynomolgus monkey brain caudate after 145 mins postinjection; assay type: ADME, organism-based, Macaca fascicularis, Caudate nucleus; settings: in vivo
[19] = Drug uptake in anesthetized cynomolgus monkey brain cerebellum after 27.5 mins postinjection; assay type: ADME, organism-based, Macaca fascicularis; settings: in vivo
Thalamus [20] = test: Drug uptake in anesthetized cynomolgus monkey brain thalamus after 12.5 mins postinjection; assay type: ADME, organism-based, Macaca fascicularis; set-up: unit not given here; settings: in vivo
Caudate [21] = test: Drug uptake in anesthetized cynomolgus monkey brain caudate after 215 mins postinjection; assay type: ADME, organism-based, Macaca fascicularis, Caudate nucleus; settings: in vivo
[22] = Drug uptake in anesthetized cynomolgus monkey brain frontal lobe after 0.5 mins postinjection; assay type: ADME, organism-based, Macaca fascicularis; settings: in vivo
Medulla [23] = test: Drug uptake in anesthetized cynomolgus monkey brain medulla after 1.5 mins postinjection; assay type: ADME, organism-based, Macaca fascicularis; settings: in vivo, 0.025 h
Caudate [24] = test: Drug uptake in anesthetized cynomolgus monkey brain caudate after 85 mins postinjection; assay type: ADME, organism-based, Macaca fascicularis, Caudate nucleus; settings: in vivo
[25] = Drug uptake in anesthetized cynomolgus monkey brain occipital lobe after 4.5 mins postinjection; assay type: ADME, organism-based, Macaca fascicularis; settings: in vivo, 0.075 h
[26] = Ratio of drug uptake in caudate to cerebellum in anesthetized cynomolgus monkey after 9.5 mins postinjection; assay type: ADME, organism-based, Macaca fascicularis; settings: in vivo
Caudate [27] = test: Drug uptake in anesthetized cynomolgus monkey brain caudate after 22.5 mins postinjection; assay type: ADME, organism-based, Macaca fascicularis, Caudate nucleus; settings: in vivo, 0.375 h
Midbrain [28] = test: Drug uptake in anesthetized cynomolgus monkey brain midbrain after 27.5 mins postinjection; assay type: ADME, organism-based, Macaca fascicularis; set-up: unit not given here; settings: in vivo
Thalamus [29] = test: Drug uptake in anesthetized cynomolgus monkey brain thalamus after 105 mins postinjection; assay type: ADME, organism-based, Macaca fascicularis; set-up: unit not given here; settings: in vivo, 1.75 h
[30] = Drug uptake in anesthetized cynomolgus monkey brain frontal lobe after 175 mins postinjection; assay type: ADME, organism-based, Macaca fascicularis; settings: in vivo
Pons [31] = test: Drug uptake in anesthetized cynomolgus monkey brain pons after 105 mins postinjection; assay type: ADME, organism-based, Macaca fascicularis; settings: in vivo, 1.75 h
Caudate [32] = test: Drug uptake in anesthetized cynomolgus monkey brain caudate after 185 mins postinjection; assay type: ADME, organism-based, Macaca fascicularis, Caudate nucleus; settings: in vivo
Medulla [33] = test: Drug uptake in anesthetized cynomolgus monkey brain medulla after 0.5 mins postinjection; assay type: ADME, organism-based, Macaca fascicularis; settings: in vivo
[34] = Ratio of drug uptake in thalamus to cerebellum in anesthetized cynomolgus monkey after 9.5 mins postinjection; assay type: ADME, organism-based, Macaca fascicularis; settings: in vivo

O=C(OCCC[18F])C1C2CCC(CC1c1cccc(/C=C\I)c1)N2 (centres undefined)
Ratio [1]: 0.7 | Drug uptake (Thalamus [2]): 3.29 | Drug uptake (Putamen [3]): 3.05 | Drug uptake (Medulla [4]): 5.08 | Drug uptake [5]: 4.24 | Ratio [6]: 1.9 | Ratio [7]: 1 | Drug uptake (Thalamus [8]): 4.24 | Drug uptake (Caudate [9]): 3.99 | Drug uptake (Midbrain [10]): 3.86 | Drug uptake (Putamen [11]): 4.67 | Drug uptake (Putamen [12]): 3.28 | Drug uptake (Medulla [13]): 2.58 | Drug uptake (Pons [14]): 3.11 | Drug uptake [15]: 3.6 | Drug uptake [16]: 4.09 | Drug uptake (Medulla [17]): 0.84 | Drug uptake (Caudate [18]): 3.24 | Drug uptake [19]: 4.8 | Drug uptake (Thalamus [20]): 3.75 | Drug uptake (Caudate [21]): 2.54 | Drug uptake [22]: 0 | Drug uptake (Medulla [23]): 0.35 | Drug uptake (Caudate [24]): 3.94 | Drug uptake [25]: 2.06 | Ratio [26]: 0.6 | Drug uptake (Caudate [27]): 3.53 | Drug uptake (Midbrain [28]): 5.04 | Drug uptake (Thalamus [29]): 4.44 | Drug uptake [30]: 2.05 | Drug uptake (Pons [31]): 4.01 | Drug uptake (Caudate [32]): 2.82 | Drug uptake (Medulla [33]): 0.01 | Ratio [34]: 0.8

Source: ChEMBL document CHEMBL1151757, “Synthesis, radiosynthesis, and biological evaluation of fluorine-18-labeled 2beta-carbo(fluoroalkoxy)-3beta-(3'-((Z)-2-haloethenyl)phenyl)nortropanes: candidate radioligands for in vivo imaging of the serotonin transporter with positron emission tomography” (J Med Chem, 2008)
